# Test results as given in BindingDB's records for doi:10.1074/jbc.274.19.13370 (SynthÉLabo, 1999).
# “And” between values parts separate entries of the source, which are not always exact repeats. Equal entries are not always repeated.
# Target: Gamma-aminobutyric acid receptor subunit alpha-5 (Rattus norvegicus, UniProt P19969)
# Sequence (P19969 whole entry): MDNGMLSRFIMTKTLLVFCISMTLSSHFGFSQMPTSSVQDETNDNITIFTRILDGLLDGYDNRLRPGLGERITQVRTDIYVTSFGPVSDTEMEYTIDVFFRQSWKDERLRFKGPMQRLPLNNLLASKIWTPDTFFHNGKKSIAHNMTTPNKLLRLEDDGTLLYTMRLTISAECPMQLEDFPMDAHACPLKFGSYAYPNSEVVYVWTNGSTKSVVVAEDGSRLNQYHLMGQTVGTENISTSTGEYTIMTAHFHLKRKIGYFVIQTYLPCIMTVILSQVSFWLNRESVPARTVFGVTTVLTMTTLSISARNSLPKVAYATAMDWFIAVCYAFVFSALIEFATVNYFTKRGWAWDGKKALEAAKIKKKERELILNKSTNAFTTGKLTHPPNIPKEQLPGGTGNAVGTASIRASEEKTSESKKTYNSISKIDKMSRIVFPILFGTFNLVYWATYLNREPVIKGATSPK
smiles,measurement,value
Cc1nnc2ccc(-c3cccc(C(F)(F)F)c3)nn12,Ki,333 nM and 127 nM and 157 nM and 447 nM
